Experimental data as given in US5198564A, “Cis-platinum-diamine complexes and antitumorous compositions containing them, and process for their preparation” (Beijing Polytechnic University, priority 1987, dated 1993).
Each block holds one compound with its values, some of them ahead of it.

How the values were obtained:
[1] = water
[2] = tested on: L1210 mouse leukemia cells; assay: Effect in prolonging the life of mouse with cancer (L1210), Test Example 1; assay type: in vivo, DBA/2 mice; details: i.p. once, 30 days observation
Description: To DBA/2 mice, L1210 mouse leukemia cells were inoculated into the abdominal cavity of each mouse used in the test. The test drugs were intraperitoneally administered once (e.g. after 24 hours of inoculation). […] The ratio (T/C %) of the survival time of a treated group (administered with a certain drug) to the survival time of a control group (administered with only physiological saline) was obtained and is shown in table VI with the average number of survival days for mice of the control group being evaluated as 100. The test drugs were aqueous suspensions obtained by adding small amounts of surfactants (e.g. tween-80) to the less soluble test compounds in water.

[3] = tested on: S180 sarcoma cells; assay: Effect in prolonging the life of mouse with cancer (S180), Test Example 2; assay type: in vivo, DBA/2 mice; details: i.p. once, 30 days observation
Description: To DBA/2 mice, S180 sarcoma cells were intraperitoneally inoculated with approximately 1×10^6 cells/mouse. The test drugs were intraperitoneally administered once (e.g. after 24 hours of inoculation). […] The ratio (T/C %) of survival time of test and control animals was obtained and is shown in table V with the average number of survival days for mice of the control group to which a physiological saline was administered being evaluated as 100. The test drugs were aqueous suspensions obtained by adding small amount of surfactants (e.g. tween-80) to the less soluble test compounds in water.

[4] = tested on: Sarcoma 180 and Leukemia L1210; details: reported in 1969; cited from earlier work
[5] = L1210 S180 printed, one value only, 8 mg/kg

SMILES: N[C@@H]1COCO[C@@H]1c1ccccc1.N[C@@H]1COCO[C@@H]1c1ccccc1.[I][Pt][I]
Solubility [1]: 20 µg/mL

SMILES: N[C@@H]1COCO[C@@H]1c1ccccc1.N[C@@H]1COCO[C@@H]1c1ccccc1.[Cl][Pt][Cl]
Solubility [1]: 60 µg/mL

SMILES: NCc1ccc(O)cc1.NCc1ccc(O)cc1.[I][Pt][I]
Solubility [1]: 800 µg/mL

SMILES: NCc1ccc(O)cc1.NCc1ccc(O)cc1.[Cl][Pt][Cl]
Solubility [1]: 1500 µg/mL

SMILES: NCc1ccccc1CN.[I][Pt][I]
Solubility [1]: 10 µg/mL

SMILES: NCc1ccccc1CN.[Cl][Pt][Cl]
Solubility [1]: 20 µg/mL

SMILES: NCc1cc(C(=O)O)c(C(=O)O)cc1CN.[I][Pt][I]
Solubility [1]: 1100 µg/mL

SMILES: NCc1cc(C(=O)O)c(C(=O)O)cc1CN.[Cl][Pt][Cl]
Solubility [1]: 2400 µg/mL

SMILES: NCc1ccc(Cl)cc1.NCc1ccc(Cl)cc1.[I][Pt][I]
T/C (%) of ST (ratio of survival time of test and control animals) ([2]; L1210, 10 mg/kg): > 182%
T/C (%) of ST (ratio of survival time of test and control animals) ([3]; 10 mg/kg): > 140%

SMILES: NCc1ccccc1.NCc1ccccc1.[I][Pt][I]
T/C (%) of ST (ratio of survival time of test and control animals) [2, 5]: > 201%

SMILES: NCc1ccccc1.NCc1ccccc1.[Cl][Pt][Cl]
T/C (%) of ST (ratio of survival time of test and control animals) [2, 5]: > 201%

SMILES: NCc1ccccc1Br.NCc1ccccc1Br.[I][Pt][I]
T/C (%) of ST (ratio of survival time of test and control animals) ([2]; L1210, 10 mg/kg): > 175%
T/C (%) of ST (ratio of survival time of test and control animals) ([3]; 10 mg/kg): > 180%

SMILES: NCc1ccccc1Br.NCc1ccccc1Br.[Cl][Pt][Cl]
T/C (%) of ST (ratio of survival time of test and control animals) ([2]; L1210, 10 mg/kg): > 180%
T/C (%) of ST (ratio of survival time of test and control animals) ([3]; 10 mg/kg): > 184%

SMILES: NCc1ccc(Br)cc1.NCc1ccc(Br)cc1.[I][Pt][I]
T/C (%) of ST (ratio of survival time of test and control animals) ([2]; L1210, 17.5 mg/kg): > 150%
T/C (%) of ST (ratio of survival time of test and control animals) ([3]; 17.5 mg/kg): > 158%

SMILES: NCc1ccc(Br)cc1.NCc1ccc(Br)cc1.[Cl][Pt][Cl]
T/C (%) of ST (ratio of survival time of test and control animals) ([2]; L1210, 12 mg/kg): > 205%
T/C (%) of ST (ratio of survival time of test and control animals) ([3]; 12 mg/kg): > 198%

SMILES: NCc1ccc(F)cc1.NCc1ccc(F)cc1.[I][Pt][I] [I 11]
T/C (%) of ST (ratio of survival time of test and control animals) ([2]; L1210, 13.5 mg/kg): > 161%
T/C (%) of ST (ratio of survival time of test and control animals) ([3]; 13.5 mg/kg): > 184%

SMILES: NCc1ccc(F)cc1.NCc1ccc(F)cc1.[Cl][Pt][Cl] [I 12]
T/C (%) of ST (ratio of survival time of test and control animals) ([2]; L1210, 13.5 mg/kg): > 177%
T/C (%) of ST (ratio of survival time of test and control animals) ([3]; 13.5 mg/kg): > 175%

SMILES: NCc1ccc(Cl)c(O)c1.NCc1ccc(Cl)c(O)c1.[I][Pt][I] [I 20]
T/C (%) of ST (ratio of survival time of test and control animals) ([2]; L1210, 15 mg/kg): > 212%
T/C (%) of ST (ratio of survival time of test and control animals) ([3]; 15 mg/kg): > 227%

SMILES: NCc1ccc(Cl)c(O)c1.NCc1ccc(Cl)c(O)c1.[Cl][Pt][Cl] [I 21]
T/C (%) of ST (ratio of survival time of test and control animals) ([2]; L1210, 15 mg/kg): > 238%
T/C (%) of ST (ratio of survival time of test and control animals) ([3]; 15 mg/kg): > 251%

SMILES: C[C@@H](N)c1ccccc1.C[C@@H](N)c1ccccc1.[I][Pt][I] [I 28]
T/C (%) of ST (ratio of survival time of test and control animals) ([2]; L1210, 17.5 mg/kg): > 220%
T/C (%) of ST (ratio of survival time of test and control animals) ([3]; 17.5 mg/kg): > 215%

SMILES: C[C@@H](N)c1ccccc1.C[C@@H](N)c1ccccc1.[Cl][Pt][Cl] [I 29]
T/C (%) of ST (ratio of survival time of test and control animals) ([2]; L1210, 17.5 mg/kg): > 246%
T/C (%) of ST (ratio of survival time of test and control animals) ([3]; 17.5 mg/kg): > 250%

SMILES: C[C@H](N)c1ccccc1.C[C@H](N)c1ccccc1.[I][Pt][I] [I 30]
T/C (%) of ST (ratio of survival time of test and control animals) ([2]; L1210, 17.5 mg/kg): > 226%
T/C (%) of ST (ratio of survival time of test and control animals) ([3]; 17.5 mg/kg): > 230%

SMILES: C[C@H](N)c1ccccc1.C[C@H](N)c1ccccc1.[Cl][Pt][Cl] [I 31]
T/C (%) of ST (ratio of survival time of test and control animals) ([2]; L1210, 17.5 mg/kg): > 260%
T/C (%) of ST (ratio of survival time of test and control animals) ([3]; 17.5 mg/kg): > 245%

SMILES: NCc1ccc(C(=O)O)cc1.NCc1ccc(C(=O)O)cc1.[I][Pt][I] [I 36]
T/C (%) of ST (ratio of survival time of test and control animals) ([2]; L1210, 10 mg/kg): > 243%
T/C (%) of ST (ratio of survival time of test and control animals) ([3]; 10 mg/kg): > 230%

SMILES: NCc1ccc(C(=O)O)cc1.NCc1ccc(C(=O)O)cc1.[Cl][Pt][Cl] [I 37]
T/C (%) of ST (ratio of survival time of test and control animals) ([2]; L1210, 10 mg/kg): > 250%
T/C (%) of ST (ratio of survival time of test and control animals) ([3]; 10 mg/kg): > 255%

SMILES: NCc1ccco1.NCc1ccco1.[I][Pt][I] [I 42]
T/C (%) of ST (ratio of survival time of test and control animals) ([2]; L1210, 17.5 mg/kg): > 200%
T/C (%) of ST (ratio of survival time of test and control animals) ([3]; 17.5 mg/kg): > 200%

SMILES: NCc1ccco1.NCc1ccco1.[Cl][Pt][Cl] [I 43]
T/C (%) of ST (ratio of survival time of test and control animals) ([2]; L1210, 12 mg/kg): > 225%
T/C (%) of ST (ratio of survival time of test and control animals) ([3]; 12 mg/kg): > 230%

SMILES: NCc1ccc(CO)o1.NCc1ccc(CO)o1.[I][Pt][I] [I 44]
T/C (%) of ST (ratio of survival time of test and control animals) ([2]; L1210, 17.5 mg/kg): > 215%
T/C (%) of ST (ratio of survival time of test and control animals) ([3]; 17.5 mg/kg): > 220%

SMILES: NCc1ccc(CO)o1.NCc1ccc(CO)o1.[Cl][Pt][Cl] [I 45]
T/C (%) of ST (ratio of survival time of test and control animals) ([2]; L1210, 12 mg/kg): > 226%
T/C (%) of ST (ratio of survival time of test and control animals) ([3]; 12 mg/kg): > 218%

SMILES: N.N.[Cl][Pt][Cl] [PDD, Cis-platinum (II) diamine dichloride]
anticancer activity [4]: strong anticancer activity against Sarcoma 180 and Leukemia L1210

SMILES: NCc1ccc(Cl)cc1.NCc1ccc(Cl)cc1.O=C([O-])C1(C(=O)[O-])CCC1.[Pt+2] [V/7]
T/C (%) of ST (ratio of survival time of test and control animals) ([2]; L1210, 10 mg/kg): > 210%
T/C (%) of ST (ratio of survival time of test and control animals) ([3]; 10 mg/kg): > 202%

SMILES: NCc1ccc(Cl)cc1.NCc1ccc(Cl)cc1.[Cl][Pt][Cl] [drawing 204]
Solubility [1]: 10 µg/mL

SMILES: NCc1ccc(Cl)c(O)c1.NCc1ccc(Cl)c(O)c1.[I][Pt][I] [drawing 209]
Solubility [1]: 400 µg/mL

SMILES: NCc1ccc(Cl)c(O)c1.NCc1ccc(Cl)c(O)c1.[Cl][Pt][Cl] [drawing 210]
Solubility [1]: 900 µg/mL

SMILES: NCc1ccc(C(=O)O)cc1.NCc1ccc(C(=O)O)cc1.[I][Pt][I] [drawing 211]
Solubility [1]: 1000 µg/mL

SMILES: NCc1ccc(C(=O)O)cc1.NCc1ccc(C(=O)O)cc1.[Cl][Pt][Cl] [drawing 212]
Solubility [1]: 2200 µg/mL

SMILES: NCc1ccco1.NCc1ccco1.[I][Pt][I] [drawing 213]
Solubility [1]: 60 µg/mL

SMILES: NCc1ccco1.NCc1ccco1.[Cl][Pt][Cl] [drawing 214]
Solubility [1]: 160 µg/mL

SMILES: NCc1ccc(CO)o1.NCc1ccc(CO)o1.[I][Pt][I] [drawing 215]
Solubility [1]: 200 µg/mL

SMILES: NCc1ccc(CO)o1.NCc1ccc(CO)o1.[Cl][Pt][Cl] [drawing 216]
Solubility [1]: 1100 µg/mL

SMILES: NCc1ccc(Cl)cc1.NCc1ccc(Cl)cc1.[Cl][Pt][Cl] [drawing 224]
T/C (%) of ST (ratio of survival time of test and control animals) ([2]; L1210, 10 mg/kg): > 197%
T/C (%) of ST (ratio of survival time of test and control animals) ([3]; 10 mg/kg): > 140%

Solubility [1]: 18500 µg/mL
SMILES: N.N.O=C1[O][Pt][O]C(=O)C12CCC2 [reference compound]
